Tests used:
[1] = system: hESCs and iPSCs; assay: EB formation from single cell suspensions using ROCK inhibitors/PVA; format: cell-based, human; conditions: 18-24 hrs
Protocol: hESCs and iPSCs adapted to feeder free growth on matrigel maintained using mTESR were preconditioned for three days in the presence of mTesR-GF containing 0.1 ng/ml TGF-β and 20 ng/ml FGF-2. To initiate differentiation from single cells the, the cultures were treated with TrypLE™ (Invitrogen) for 6 minutes and the cells suspension was collected in (1) plain EB basal media, (2) EB basal media containing PVA, (3) EB basal media containing 0.5% PVA and 1 μM H1152 or 10 μM Y27632 ROCK inhibitor, or (4) EB basal media containing only 1 uM H1152 ROCK inhibitor. The cells were collected and washed once and plated in the respective media formulations on a low attachment plate at 37 C. The EB formation status was checked at 18-24 hrs later under a phase contrast microscope.

[2] = system: ROCK; conditions: cited from earlier work
[3] = system: pluripotent cells; assay: Hematopoietic differentiation in defined cell culture media with single growth factors; format: cell-based; conditions: factor alone in a cell culture media
[4] = system: hESCs; assay: Cytokine matrix: serum-free EB hematopoietic differentiation, surface markers by flow cytometry; format: cell-based, human; conditions: for role during EB differentiation: serum free hematopoietic differentiation, days 8, 12, 17
Protocol: Cells were collected from each well/condition and washed once with media. The cell pellet was digested using TrypLE™ or 0.5% trypsin for 5-10 minutes in a 37° C. incubator followed by washes with media and passage through a 70-μm cell strainer. […] Non-viable cells were excluded with 7-aminoactinomycin D (7-AAD, BD Biosciences). Live cell analysis was performed on a FACSCalibur™ or Accuri flow cytometer and Cell Quest software. hESCs adapted to feeder free growth on matrigel maintained using mTESR were preconditioned for three days in the presence of X-vivo-15 containing 0.1 ng/ml TGF-β and 20 ng/ml FGF-2. Cells were harvested using TrypLE for 6 minutes at 37 C. TrypLE™ was neutralized using EB basal media containing 1 μM ROCK inhibitor (H-1152), Soybean trypsin inhibitor (0.25 mg/ml). The cells were washed once in EB basal media containing 1 μM ROCK inhibitor and soybean trypsin inhibitor (0.25 mg/ml). The cells were plated in low attachment plates in EB basal media containing 1 μM ROCK inhibitor and soybean trypsin inhibitor (0.25 mg/ml). The media was changed the next day to EB basal media containing different cytokine formulations. […] The cytokine combinations used are listed below in Table 3. The EB cultures were half fed with fresh differentiation media every two days. The EB cultures were harvested on day 8, 12 and 17 of differentiation. The EB cultures were harvested by spinning down all the cells and digesting the EBs with TrypLE™ or 0.5% trypsin. The phenotype of the progenitor cell types was analyzed by flow cytometry and the cells were plated in methylcellulose media for CFU assays. “FLT3” refers to the Flt3 ligand below.

[5] = ROCK inhibitor present (1 μM H1152 or 10 μM Y27632), 0.5% PVA present
[6] = ROCK inhibitor present, PVA absent

Cc1cncc2cccc(S(=O)(=O)N3CCCNCC3C)c12 (stereo in doubt) [H-1152, (S)-(+)-2-Methyl-1-[(4-methyl-5-isoquinolinyl)sulfonyl]homopiperazine]
EB status [1, 5]: Formed | EB status [1, 6]: Formed | potency relative to HA-100 [2]: approximately ten-fold

C[C@@H](N)[C@H]1CC[C@H](C(=O)Nc2ccncc2)CC1 [Y-27632, (R)-(+)-trans-4-(1-Aminoethyl)-N-(4-Pyridyl)cyclohexanecarboxamide]
EB status [1, 5]: Formed | EB status [1, 6]: Formed

BMP4: Bone morphogenetic protein-4
promotion of hematopoietic differentiation [3]: did not promote hematopoietic differentiation | CD31 expressing cells ([4]; DAY 8, factor ABSENT): 0.2% | CD34 expressing cells ([4]; DAY 8, factor ABSENT): 0.5% | CD43 expressing cells ([4]; DAY 8, factor ABSENT): 0.1% | CD45 expressing cells ([4]; DAY 8, factor ABSENT): 0.2% | FLK-1 expressing cells ([4]; DAY 8, factor ABSENT): 1.4% | CD31 expressing cells ([4]; DAY 8, factor PRESENT): 1.3% | CD34 expressing cells ([4]; DAY 8, factor PRESENT): 1.7% | CD43 expressing cells ([4]; DAY 8, factor PRESENT): 1.6% | CD45 expressing cells ([4]; DAY 8, factor PRESENT): 0.2% | FLK-1 expressing cells ([4]; DAY 8, factor PRESENT): 2.4% | CD31 expressing cells ([4]; DAY 12, factor ABSENT): 0.6% | CD34 expressing cells ([4]; DAY 12, factor ABSENT): 1.3% | CD43 expressing cells ([4]; DAY 12, factor ABSENT): 0.3% | CD45 expressing cells ([4]; DAY 12, factor ABSENT): 0.1% | FLK-1 expressing cells ([4]; DAY 12, factor ABSENT): 0.2% | CD31 expressing cells ([4]; DAY 12, factor PRESENT): 3.2% | CD34 expressing cells ([4]; DAY 12, factor PRESENT): 2.9% | CD43 expressing cells ([4]; DAY 12, factor PRESENT): 4.0% | CD45 expressing cells ([4]; DAY 12, factor PRESENT): 3.7% | FLK-1 expressing cells ([4]; DAY 12, factor PRESENT): 0.7% | CD31 expressing cells ([4]; DAY 17, factor ABSENT): 1.0% | CD34 expressing cells ([4]; DAY 17, factor ABSENT): 2.0% | CD43 expressing cells ([4]; DAY 17, factor ABSENT): 0.7% | CD45 expressing cells ([4]; DAY 17, factor ABSENT): 0.3% | FLK-1 expressing cells ([4]; DAY 17, factor ABSENT): 0.8% | CD31 expressing cells ([4]; DAY 17, factor PRESENT): 11.9% | CD34 expressing cells ([4]; DAY 17, factor PRESENT): 2.9% | CD43 expressing cells ([4]; DAY 17, factor PRESENT): 12.8% | CD45 expressing cells ([4]; DAY 17, factor PRESENT): 12.8% | FLK-1 expressing cells ([4]; DAY 17, factor PRESENT): 2.7% | role during EB differentiation [4]: significant role at all time points

VEGF
promotion of hematopoietic differentiation [3]: did not promote hematopoietic differentiation | CD31 expressing cells ([4]; DAY 8, factor ABSENT): 0.4% | CD34 expressing cells ([4]; DAY 8, factor ABSENT): 0.7% | CD43 expressing cells ([4]; DAY 8, factor ABSENT): 0.1% | CD45 expressing cells ([4]; DAY 8, factor ABSENT): 0.1% | FLK-1 expressing cells ([4]; DAY 8, factor ABSENT): 2.0% | CD31 expressing cells ([4]; DAY 8, factor PRESENT): 1.1% | CD34 expressing cells ([4]; DAY 8, factor PRESENT): 1.5% | CD43 expressing cells ([4]; DAY 8, factor PRESENT): 1.6% | CD45 expressing cells ([4]; DAY 8, factor PRESENT): 0.2% | FLK-1 expressing cells ([4]; DAY 8, factor PRESENT): 1.8% | CD31 expressing cells ([4]; DAY 12, factor ABSENT): 0.6% | CD34 expressing cells ([4]; DAY 12, factor ABSENT): 1.3% | CD43 expressing cells ([4]; DAY 12, factor ABSENT): 0.2% | CD45 expressing cells ([4]; DAY 12, factor ABSENT): 0.2% | FLK-1 expressing cells ([4]; DAY 12, factor ABSENT): 0.3% | CD31 expressing cells ([4]; DAY 12, factor PRESENT): 3.2% | CD34 expressing cells ([4]; DAY 12, factor PRESENT): 2.9% | CD43 expressing cells ([4]; DAY 12, factor PRESENT): 4.0% | CD45 expressing cells ([4]; DAY 12, factor PRESENT): 3.6% | FLK-1 expressing cells ([4]; DAY 12, factor PRESENT): 0.6% | CD31 expressing cells ([4]; DAY 17, factor ABSENT): 1.0% | CD34 expressing cells ([4]; DAY 17, factor ABSENT): 2.0% | CD43 expressing cells ([4]; DAY 17, factor ABSENT): 0.9% | CD45 expressing cells ([4]; DAY 17, factor ABSENT): 0.4% | FLK-1 expressing cells ([4]; DAY 17, factor ABSENT): 1.4% | CD31 expressing cells ([4]; DAY 17, factor PRESENT): 11.8% | CD34 expressing cells ([4]; DAY 17, factor PRESENT): 2.8% | CD43 expressing cells ([4]; DAY 17, factor PRESENT): 12.6% | CD45 expressing cells ([4]; DAY 17, factor PRESENT): 12.7% | FLK-1 expressing cells ([4]; DAY 17, factor PRESENT): 2.3% | role during EB differentiation [4]: significant role at all time points

B1: FLT-3: Flt3 ligand, the endogenous ligand for FLT3 (protein, UniProt P49771 27-235, looked up)
Fms-related tyrosine kinase 3 …: TQDCSFQHSPISSDFAVKIRELSDYLLQDYPVTVASNLQDEELCGGLWRLVLAQRWMERLKTVAGSKMQGLLERVNTEIHFVTKCAFQPPPSCLRFVQTNISRLLQETSEQLVALKPWITRQNFSRCLELQCQPDSSTLPPPWSPRPLEATAPTAPQPPLLLLLLLPVGLLLLAAAWCLHWQRTRRRTPRPGEQVPPVPSPQDLLLVEH
CD31 expressing cells ([4]; DAY 8, factor ABSENT): 0.5% | CD34 expressing cells ([4]; DAY 8, factor ABSENT): 0.9% | CD43 expressing cells ([4]; DAY 8, factor ABSENT): 0.3% | CD45 expressing cells ([4]; DAY 8, factor ABSENT): 0.2% | FLK-1 expressing cells ([4]; DAY 8, factor ABSENT): 1.6% | CD31 expressing cells ([4]; DAY 8, factor PRESENT): 1.0% | CD34 expressing cells ([4]; DAY 8, factor PRESENT): 1.4% | CD43 expressing cells ([4]; DAY 8, factor PRESENT): 1.4% | CD45 expressing cells ([4]; DAY 8, factor PRESENT): 0.2% | FLK-1 expressing cells ([4]; DAY 8, factor PRESENT): 2.2% | CD31 expressing cells ([4]; DAY 12, factor ABSENT): 1.5% | CD34 expressing cells ([4]; DAY 12, factor ABSENT): 1.7% | CD43 expressing cells ([4]; DAY 12, factor ABSENT): 1.4% | CD45 expressing cells ([4]; DAY 12, factor ABSENT): 1.2% | FLK-1 expressing cells ([4]; DAY 12, factor ABSENT): 0.5% | CD31 expressing cells ([4]; DAY 12, factor PRESENT): 2.4% | CD34 expressing cells ([4]; DAY 12, factor PRESENT): 2.6% | CD43 expressing cells ([4]; DAY 12, factor PRESENT): 3.0% | CD45 expressing cells ([4]; DAY 12, factor PRESENT): 2.7% | FLK-1 expressing cells ([4]; DAY 12, factor PRESENT): 0.5% | CD31 expressing cells ([4]; DAY 17, factor ABSENT): 1.4% | CD34 expressing cells ([4]; DAY 17, factor ABSENT): 2.2% | CD43 expressing cells ([4]; DAY 17, factor ABSENT): 1.1% | CD45 expressing cells ([4]; DAY 17, factor ABSENT): 0.9% | FLK-1 expressing cells ([4]; DAY 17, factor ABSENT): 1.3% | CD31 expressing cells ([4]; DAY 17, factor PRESENT): 11.5% | CD34 expressing cells ([4]; DAY 17, factor PRESENT): 2.6% | CD43 expressing cells ([4]; DAY 17, factor PRESENT): 12.4% | CD45 expressing cells ([4]; DAY 17, factor PRESENT): 12.3% | FLK-1 expressing cells ([4]; DAY 17, factor PRESENT): 2.4%

Source: patent publication US10100282B2, “Differentiation of pluripotent cells” (FUJIFILM Cellular Dynamics, Inc., priority 2009, dated 2018)
